# Results reported in ChEMBL document CHEMBL5365466, “Discovery of Triazolyl Derivatives of Cucurbitacin B Targeting IGF2BP1 against Non-Small Cell Lung Cancer” (J Med Chem, 2023).
# How the values were obtained:
# HCT-116 [1] = experiment: Antiproliferative activity against human HCT-116 cells assessed as cell growth inhibition at 1 uM incubated for 72 hrs by SRB assay; assay type: functional
# HCT-116 [2] = experiment: Antiproliferative activity against human HCT-116 cells assessed as cell growth inhibition at 0.1 uM incubated for 72 hrs by SRB assay; assay type: functional
# [3] = Antiproliferative activity against human L02 cells assessed as cell growth inhibition at 1 uM incubated for 72 hrs by SRB assay; assay type: toxicity, cell-based
# [4] = Antiproliferative activity against human L02 cells assessed as cell growth inhibition at 0.1 uM incubated for 72 hrs by SRB assay; assay type: toxicity, cell-based
SMILES,inhibition at 1 µM (HCT-116 [1]) [%],inhibition at 0.1 µM (HCT-116 [2]) [%],"inhibition at 72 h, 1 µM [3] [%]","inhibition at 72 h, 0.1 µM [4] [%]"
CC(=O)OC(C)(C)/C=C/C(=O)[C@](C)(O)[C@H]1[C@H](OC(=O)/C=C/c2ccc(C)cc2)C[C@@]2(C)[C@@H]3CC=C4[C@@H](C[C@H](O)C(=O)C4(C)C)[C@]3(C)C(=O)C[C@]12C,4.99,5.73,7.53,3.35
COc1ccc(-n2cc(C(=O)O[C@H]3C[C@@H]4C(=CC[C@@H]5[C@@]4(C)C(=O)C[C@]4(C)[C@@H]([C@@](C)(O)C(=O)/C=C/C(C)(C)OC(C)=O)[C@H](O)C[C@@]54C)C(C)(C)C3=O)nn2)cc1,92.1,49.4,73.1,12.6
COc1ccc(/C=C/C(=O)O[C@H]2C[C@@H]3C(=CC[C@@H]4[C@@]3(C)C(=O)C[C@]3(C)[C@@H]([C@@](C)(O)C(=O)/C=C/C(C)(C)OC(C)=O)[C@H](OC(=O)/C=C/c5ccc(OC)cc5)C[C@@]43C)C(C)(C)C2=O)cc1,2.18,0.38,0.89,-2.33
CC(=O)OC(C)(C)/C=C/C(=O)[C@](C)(O)[C@H]1[C@H](O)C[C@@]2(C)[C@@H]3CC=C4[C@@H](C[C@H](OC(=O)c5cccs5)C(=O)C4(C)C)[C@]3(C)C(=O)C[C@]12C,95.2,3.99,75.2,4.77
CC(=O)OC(C)(C)/C=C/C(=O)[C@](C)(O)[C@H]1[C@H](O)C[C@@]2(C)[C@@H]3CC=C4[C@@H](C[C@H](OC(=O)/C=C/c5ccc(F)cc5)C(=O)C4(C)C)[C@]3(C)C(=O)C[C@]12C,87.6,1.53,1.62,-3.78
CC(=O)OC(C)(C)/C=C/C(=O)[C@](C)(O)[C@H]1[C@H](OC(=O)/C=C/c2ccc(F)cc2)C[C@@]2(C)[C@@H]3CC=C4[C@@H](C[C@H](OC(=O)/C=C/c5ccc(F)cc5)C(=O)C4(C)C)[C@]3(C)C(=O)C[C@]12C,7.98,2.07,6.72,-13.1
CC(=O)OC(C)(C)/C=C/C(=O)[C@](C)(O)[C@H]1[C@H](OC(=O)/C=C/c2ccccc2)C[C@@]2(C)[C@@H]3CC=C4[C@@H](C[C@H](OC(=O)/C=C/c5ccccc5)C(=O)C4(C)C)[C@]3(C)C(=O)C[C@]12C,9.26,3.56,11.7,0.97
CC(=O)OC(C)(C)/C=C/C(=O)[C@](C)(O)[C@H]1[C@H](O)C[C@@]2(C)[C@@H]3CC=C4[C@@H](C[C@H](OC(=O)/C=C/c5ccccc5)C(=O)C4(C)C)[C@]3(C)C(=O)C[C@]12C,86.8,1.46,72.7,1.72
COc1ccc(/C=C/C(=O)O[C@@H]2C[C@@]3(C)[C@@H]4CC=C5[C@@H](C[C@H](O)C(=O)C5(C)C)[C@]4(C)C(=O)C[C@]3(C)[C@H]2[C@@](C)(O)C(=O)/C=C/C(C)(C)OC(C)=O)cc1,67.3,0.47,47.4,-3.17
CC(=O)OC(C)(C)/C=C/C(=O)[C@](C)(O)[C@H]1[C@H](O)C[C@@]2(C)[C@@H]3CC=C4[C@@H](C[C@H](OC(=O)c5cccnc5)C(=O)C4(C)C)[C@]3(C)C(=O)C[C@]12C,82.4,19.9,68.3,10.1
CC(=O)OC(C)(C)/C=C/C(=O)[C@](C)(O)[C@H]1[C@H](O)C[C@@]2(C)[C@@H]3CC=C4[C@@H](C[C@H](OC(=O)c5cn(-c6ccc(C)cc6)nn5)C(=O)C4(C)C)[C@]3(C)C(=O)C[C@]12C,88.1,27.9,72.4,3.68
